Reference: patent publication US8741851B2, “Peptides having antimicrobial activity” (Universiti Malaya, priority 2012, dated 2014)
Where no end group is shown, it is not given here.

How the values were obtained:
Pseudomonas aeruginosa = experiment: antimicrobial activity against bacterial pathogens; format: cell-based; conditions: Gram-negative
K. pneumoniae = experiment: antimicrobial activity against bacterial pathogens; format: cell-based; conditions: Gram-negative
Citrobacter spp. = experiment: antimicrobial activity against bacterial pathogens; format: cell-based; conditions: Gram-negative
[1] = antimicrobial activity against bacterial pathogens; format: cell-based, Enterococcus cloacae; conditions: Gram-negative
Description: (§1) The antimicrobial peptides are thereafter tested using broth microdilution assay 5×10^5 cfu/ml against a total of 60 pneumococcal isolates (20 isolates for each penicillin-susceptible, penicilin-intermediate, and penicilin-resistant pneumococci) to determine their minimum inhibitory concentration (MIC).
(§2) In a preferred embodiment, the SEQ ID NO:1 is weakly effective against Acinetobacter baumannii at 125 μg/ml only. The SEQ ID NO:2 has broader spectrum which effective against Acinetobacter baumannii, Staphylococcus aureus, methicillin-resistant Staphylococcus aureus, Escherichia coli, Enterococcus cloacae at 125 μg/ml respectively.

Streptococcus pneumoniae = experiment: broth microdilution MIC, all 60 pneumococcal isolates; format: cell-based; conditions: for Overall EP: all 60 pneumococcal isolates irrespective of penicillin susceptibility; for overall effective percentage relative to the indolicidin class of antimicrobial peptide: higher than indolicidin, irrespective of penicillin susceptibility
Excerpt: as §1
(§3) The minimum inhibitory concentration of the antimicrobial peptide for Pro-His-Trp-Trp-Lys-Trp-Ala-Trp-Trp-His-His-Arg-Arg (SEQ ID NO:1), Lys-His-Trp-Trp-Lys-His-Asp-Trp-Trp-Arg-Trp-Arg-Arg (SEQ ID NO:2), and Ile-Leu-Trp-Trp-Leu-Leu-Ala-Trp-Trp-Arg-Trp-Pro-His (SEQ ID NO:3) are presented in Table 1. An effective range (ER) is defined as the range of the minimum inhibitory concentration to which the antimicrobial peptide produces detectable activity against the bacterial pathogens, whereas an effective percentage (EP) is the percentage of isolates inhibited with the effective range. From the Table 1, the SEQ ID NO:1 inhibited 95% penicillin-resistant pneumococci at the effective range of 62.5 to 250 μg/ml, 85% penicilin-intermediate pneumococci was inhibited at the effective range of 62.5 to 250 μg/ml, and 80% penicilin-susceptible pneumococci was inhibited at the effective range of 125 to 250 μg/ml. The SEQ ID NO:2 inhibited 100% of penicillin-resistant pneumococci at the effective range of 62.5 to 250 μg/ml, 95% penicilin-intermediate pneumococci was inhibited at the effective range of 125 to 250 μg/ml, and 95% penicilin-susceptible pneumococci was inhibited at the effective range of 62.5 to 250 μg/ml. […] However, the antipneumococcal activity is not detected for SEQ ID NO:3 up to the maximum concentration (250 μg/ml) tested.

[2] = test system: penicilin-susceptible pneumococci; experiment: broth microdilution MIC, penicilin-susceptible pneumococci; format: cell-based, Streptococcus pneumoniae; conditions: 20 isolates; for ER (effective range of MIC): 5×10^5 cfu/ml
Excerpt: as §1, §3

[3] = test system: penicillin-resistant pneumococci; experiment: broth microdilution MIC, penicillin-resistant pneumococci; format: cell-based, Streptococcus pneumoniae; conditions: 20 isolates; for ER (effective range of MIC): 5×10^5 cfu/ml
Excerpt: as §1, §3

[4] = test system: penicilin-intermediate pneumococci; experiment: broth microdilution MIC, penicilin-intermediate pneumococci; format: cell-based, Streptococcus pneumoniae; conditions: 20 isolates; for ER (effective range of MIC): 5×10^5 cfu/ml
Excerpt: as §1, §3

[5] = test system: methicillin-resistant Staphylococcus aureus; experiment: antimicrobial activity against bacterial pathogens; format: cell-based; conditions: Gram-positive
Description: as §1, §2

Escherichia coli = experiment: antimicrobial activity against bacterial pathogens; format: cell-based; conditions: Gram-negative
Description: as §1, §2

Staphylococcus aureus = experiment: antimicrobial activity against bacterial pathogens; format: cell-based; conditions: Gram-positive
Description: as §1, §2

Acinetobacter baumannii = experiment: antimicrobial activity against bacterial pathogens; format: cell-based; conditions: Gram-negative
Description: as §1, §2

Sequence	antimicrobial activity (inhibitory concentration) against P. aeruginosa (Pseudomonas aeruginosa) [µg/mL]	antimicrobial activity (inhibitory concentration) against K. pneumoniae (K. pneumoniae) [µg/mL]	antimicrobial activity (inhibitory concentration) against Citrobacter spp. (Citrobacter spp.) [µg/mL]	antimicrobial activity (inhibitory concentration) against E. cloacae [1] [µg/mL]	Overall EP (Streptococcus pneumoniae) [%]	antipneumococcal activity (Streptococcus pneumoniae; up to the maximum concentration (250 μg/ml) tested)	EP (effective percentage, isolates inhibited within ER) [2] [%]	ER (effective range of MIC) [2] [µg/mL]	EP (effective percentage, isolates inhibited within ER) [3] [%]	ER (effective range of MIC) [3] [µg/mL]	EP (effective percentage, isolates inhibited within ER) [4] [%]	ER (effective range of MIC) [4] [µg/mL]	antimicrobial activity (inhibitory concentration) against methicillin-resistant S. aureus [5] [µg/mL]	antimicrobial activity (inhibitory concentration) against E. coli (Escherichia coli) [µg/mL]	antimicrobial activity (inhibitory concentration) against S. aureus (Staphylococcus aureus) [µg/mL]	antimicrobial activity (inhibitory concentration) against A. baumannii (Acinetobacter baumannii) [µg/mL]	overall effective percentage relative to the indolicidin class of antimicrobial peptide (Streptococcus pneumoniae)
ILWWLLAWWRWPH [SEQ ID NO:3]	>250	>250	>250	>250	0	not detected	0	>250	0	>250	0	>250	>250	>250	7.81	>250	–
PHWWKWAWWHHRR [SEQ ID NO:1]	>250	>250	>250	>250	86.7	–	80	125 to 250	95	62.5 to 250	85	62.5 to 250	>250	>250	>250	125	approximately two fold
ILWWKWAWWRWRR [reference compound]	>250	>250	62.5	125	46.7	–	65	31.25 to 250	45	62.5 to 250	30	125 to 250	31.25	250	62.5	125	–
KHWWKHDWWRWRR [SEQ ID NO:2]	62.5	>250	31.25	125	96.7	–	95	62.5 to 250	100	62.5 to 250	95	125 to 250	125	125	125	125	approximately two fold
